Experimental data reported in patent publication US9833497B2, “Human originated EGF domain proteins and use of the same” (CHENGDU SOURCEBIO LIMITED-LIABILITY COMPANY, priority 2013, dated 2017).

Assays:
Assay type in all cases: cell-based
[1] = test system: Citrobacter diversus; experiment: MIC against Gram-negative bacteria: Citrobacter diversus; conditions: Citrobacter diversus; 5×10^5 CFU/mL; 10 h cultivation at 37° C.
How it was run: (§1)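 MIC = lowest concentration of recombinant protein showing no growth. Test proteins: purified human-derived EGF domain proteins, two-fold dilution series, three wells per concentration; inoculum 5×10^5 CFU/mL in LB; incubation 37° C with shaking at 175 rpm.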

[2] = test system: E. coli DH5α; experiment: Antibacterial activity: MIC and growth curve against E. coli DH5α in 96-well plate; conditions: minimal inhibitory concentration against E. coli DH5α; 96-well plate, 5×10^5 CFU/mL, 37° C., judged after 8 h
How it was run: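 Log-phase bacteria (OD600 ~0.5) resuspended in LB at 5×10^5 CFU/mL, exposed to recombinant protein at 50, 25, 12.5 μg/mL final in triplicate, 37 °C shaking at 175 rpm. OD600 read every 30 min; MIC is lowest concentration showing no growth.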

[3] = test system: E. coli BL21; experiment: MIC against Gram-negative bacteria: E. coli BL21; conditions: E. coli BL21; 5×10^5 CFU/mL; 10 h cultivation at 37° C.
How it was run: as §1

[4] = test system: Proteus mirabilis; experiment: MIC against Gram-negative bacteria: Proteus mirabilis; conditions: Proteus mirabilis; 5×10^5 CFU/mL; 10 h cultivation at 37° C.
How it was run: as §1

[5] = test system: Serratia marcescens; experiment: MIC against Gram-negative bacteria: Serratia marcescens; conditions: Serratia marcescens; 5×10^5 CFU/mL; 10 h cultivation at 37° C.
How it was run: as §1

[6] = test system: Proteus vulgaris; experiment: MIC against Gram-negative bacteria: Proteus vulgaris; conditions: Proteus vulgaris; 5×10^5 CFU/mL; 10 h cultivation at 37° C.
How it was run: as §1

[7] = test system: Klebsiella pneumonia; experiment: MIC against Gram-negative bacteria: Klebsiella pneumonia; conditions: Klebsiella pneumonia; 5×10^5 CFU/mL; 10 h cultivation at 37° C.
How it was run: as §1

[8] = test system: Moraxella catarrhalis; experiment: MIC against Gram-negative bacteria: Moraxella catarrhalis; conditions: Moraxella catarrhalis; 5×10^5 CFU/mL; 10 h cultivation at 37° C.
How it was run: as §1

[9] = test system: Aeromonas hydrophila; experiment: MIC against Gram-negative bacteria: Aeromonas hydrophila; conditions: Aeromonas hydrophila; 5×10^5 CFU/mL; 10 h cultivation at 37° C.
How it was run: as §1

[10] = test system: Enterobacter cloacae; experiment: MIC against Gram-negative bacteria: Enterobacter cloacae; conditions: Enterobacter cloacae; 5×10^5 CFU/mL; 10 h cultivation at 37° C.
How it was run: as §1

[11] = test system: Pseudomonas aeruginosa; experiment: MIC against Gram-negative bacteria: Pseudomonas aeruginosa; conditions: Pseudomonas aeruginosa; 5×10^5 CFU/mL; 10 h cultivation at 37° C.
How it was run: as §1

| Substance | MIC against C. diversus [1] | MIC [2] | MIC against E. coli BL21 [3] | MIC against P. mirabilis [4] | MIC against S. marcescens [5] | MIC against P. vulgaris [6] | MIC against K. pneumonia [7] | MIC against M. catarrhalis [8] | MIC against A. hydrophila [9] | MIC against E. cloacae [10] | MIC against P. aeruginosa [11] |
| --- | --- | --- | --- | --- | --- | --- | --- | --- | --- | --- | --- |
| PRT1473 (SFLNCSLDNGGCTHYCLEEVGWRRCSCAPGYKLGDDLLQCH; listed as Homo sapiens) | 12.5 µg/mL | 12.5 µg/mL | 25 µg/mL | 50 µg/mL | 12.5 µg/mL | 25 µg/mL | 50 µg/mL | 25 µg/mL | 50 µg/mL | 12.5 µg/mL | 25 µg/mL |
| PRT1474 (IPDQCSPLPCNEDGYMSCKDGKASFTCTCKPGWQGEKCE; listed as Homo sapiens) | 12.5 µg/mL | 50 µg/mL | 12.5 µg/mL | 50 µg/mL | 25 µg/mL | 12.5 µg/mL | 25 µg/mL | 25 µg/mL | 25 µg/mL | 50 µg/mL | 25 µg/mL |
| PRT1475 (DINECKDPSNINGGCSQICDNTPGSYHCSCKNGFVMLSNKKDCK; listed as Homo sapiens) | 25 µg/mL | 25 µg/mL | 12.5 µg/mL | 25 µg/mL | 12.5 µg/mL | 12.5 µg/mL | 12.5 µg/mL | 12.5 µg/mL | 12.5 µg/mL | 25 µg/mL | 12.5 µg/mL |
| PRT1476 (DVDECSLKPSICGTAVCKNIPGDFECECPEGYRYNLKSKSCE; listed as Homo sapiens) | 12.5 µg/mL | 12.5 µg/mL | 25 µg/mL | 50 µg/mL | 25 µg/mL | 12.5 µg/mL | 50 µg/mL | 25 µg/mL | 50 µg/mL | 12.5 µg/mL | 12.5 µg/mL |
| PRT1477 (DIDECSENMCAQLCVNYPGGYTCYCDGKKGFKLAQDQKSCE; listed as Homo sapiens) | 25 µg/mL | 50 µg/mL | 12.5 µg/mL | 25 µg/mL | 12.5 µg/mL | 50 µg/mL | 12.5 µg/mL | 12.5 µg/mL | 50 µg/mL | 25 µg/mL | 50 µg/mL |
| PRT1478 (GGSPCISQPCLHNGSCQDSIWGYTCTCSPGYEGSNCE; listed as Homo sapiens) | 12.5 µg/mL | 50 µg/mL | 12.5 µg/mL | 50 µg/mL | 12.5 µg/mL | 25 µg/mL | 25 µg/mL | 25 µg/mL | 50 µg/mL | 12.5 µg/mL | 50 µg/mL |
| PRT1479 (AKNECHPERTDGCQHFCLPGQESYTCSCAQGYRLGEDHKQCV; listed as Homo sapiens) | 50 µg/mL | 50 µg/mL | 12.5 µg/mL | 25 µg/mL | 12.5 µg/mL | 50 µg/mL | 100 µg/mL | 12.5 µg/mL | 12.5 µg/mL | 50 µg/mL | 50 µg/mL |
| PRT1480 (PGPCDSQPCQNGGTCVPEGLDGYQCLCPLAFGGEANCA; listed as Homo sapiens) | 25 µg/mL | 50 µg/mL | 12.5 µg/mL | 50 µg/mL | 50 µg/mL | 12.5 µg/mL | 12.5 µg/mL | 12.5 µg/mL | 12.5 µg/mL | 25 µg/mL | 25 µg/mL |
| PRT1481 (PVNLCKPSPCMNEGSCVLQNGSYRCKCRDGWEGPHCE; listed as Homo sapiens) | 12.5 µg/mL | 12.5 µg/mL | 25 µg/mL | 12.5 µg/mL | 25 µg/mL | 50 µg/mL | 12.5 µg/mL | 50 µg/mL | 25 µg/mL | 50 µg/mL | 50 µg/mL |
| PRT1482 (LCSFGCGSGICIAPNVCSCQDGEQGATCP; listed as Homo sapiens) | 12.5 µg/mL | 12.5 µg/mL | 50 µg/mL | 50 µg/mL | 25 µg/mL | 25 µg/mL | 50 µg/mL | 25 µg/mL | 50 µg/mL | 12.5 µg/mL | 12.5 µg/mL |
| PRT1483 (DIDECVTSSCEGHCVNTEGGFVCECGPGMQLSADRHSCQ; listed as Homo sapiens) | 50 µg/mL | 12.5 µg/mL | 25 µg/mL | 12.5 µg/mL | 25 µg/mL | 25 µg/mL | 25 µg/mL | 25 µg/mL | 25 µg/mL | 12.5 µg/mL | 50 µg/mL |
| PRT1484 (DTDECLGTPCQQRCKNSIGSYKCSCRTGFHLHGNRHSCV; listed as Homo sapiens) | 25 µg/mL | 50 µg/mL | 12.5 µg/mL | 50 µg/mL | 50 µg/mL | 12.5 µg/mL | 12.5 µg/mL | 12.5 µg/mL | 50 µg/mL | 25 µg/mL | 50 µg/mL |
| PRT1485 (DVNECRRPLERRVCHHSCHNTVGSFLCTCRPGFRLRADRVSCE; listed as Homo sapiens) | 12.5 µg/mL | 12.5 µg/mL | 50 µg/mL | 12.5 µg/mL | 12.5 µg/mL | 12.5 µg/mL | 12.5 µg/mL | 50 µg/mL | 50 µg/mL | 12.5 µg/mL | 12.5 µg/mL |
| PRT1486 (TVKSCDCLNGGSCVSDRNFSPGSGVYLCVCLPGFHGSLCE; listed as Homo sapiens) | 12.5 µg/mL | 12.5 µg/mL | 12.5 µg/mL | 12.5 µg/mL | 12.5 µg/mL | 12.5 µg/mL | 25 µg/mL | 25 µg/mL | 25 µg/mL | 12.5 µg/mL | 25 µg/mL |
| PRT1493 (QQAECPGGCRNGGFCNERRICECPDGFHGPHCE; listed as Homo sapiens) | 50 µg/mL | 100 µg/mL | 25 µg/mL | 50 µg/mL | 50 µg/mL | 25 µg/mL | 12.5 µg/mL | 25 µg/mL | 50 µg/mL | 12.5 µg/mL | 12.5 µg/mL |
